Laboratory results published in US8557816B2, “Aurora kinase modulators and method of use” (Amgen Inc., priority 2007, dated 2013).

Key:
AuroraA-TPX2 = biological target: T1, AuroraA-TPX2 (Homo sapiens, UniProt O14965); assay: AuroraA-TPX2 Homogeneous Time Resolved Fluorescent (HTRF) kinase assay; type: biochemical; conditions: average; read-out: AurA_IC50_IP (uM Avg)
T1 construct: 20 μL of AuroraA-TPX2 KD GST for a final volume of about 41 μL; GST
T1 sequence (O14965 133-383 limits assumed): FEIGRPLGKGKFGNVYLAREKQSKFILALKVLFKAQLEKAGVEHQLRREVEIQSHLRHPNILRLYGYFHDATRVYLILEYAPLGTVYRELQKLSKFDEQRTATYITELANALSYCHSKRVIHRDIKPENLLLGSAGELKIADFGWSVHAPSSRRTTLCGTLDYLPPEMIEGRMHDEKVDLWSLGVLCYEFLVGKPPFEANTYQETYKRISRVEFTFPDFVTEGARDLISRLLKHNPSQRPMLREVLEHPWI
T1 sequence (Q9ULW0 1-43 partner limits assumed): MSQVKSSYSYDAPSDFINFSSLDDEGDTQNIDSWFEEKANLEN
How it was run: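 HTRF read-out (Eu 615 nm to APC 655 nm) of phosphorylated biotin-PLK, detected with 0.02 nM europium anti-phosphoPLK antibody and 0.0005 mg/mL SA-APC after overnight equilibration.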

AuroraB = biological target: T2, AuroraB (Homo sapiens, UniProt Q96GD4); assay: AuroraB Homogeneous Time Resolved Fluorescent (HTRF) kinase assay; type: biochemical; conditions: average; read-out: AurB_IC50_IP (uM Avg)
T2 construct: 20 μL of AuroraB FL H is for a final volume of 41 μL; His
How it was run: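 Full-length His-tagged kinase phosphorylates biotinylated Histone H3 (0.1 μM final) with ATP in pH 7.5 HEPES containing MgCl, MnCl, DTT and BSA for about 90 min. EDTA-containing detection mix with SA-APC and Eu-anti-phosphoHistone H3 then equilibrated about 60 min; HTRF read with 320 nm excitation, emissions 615/655 nm.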

T2 sequence (Q96GD4 whole entry): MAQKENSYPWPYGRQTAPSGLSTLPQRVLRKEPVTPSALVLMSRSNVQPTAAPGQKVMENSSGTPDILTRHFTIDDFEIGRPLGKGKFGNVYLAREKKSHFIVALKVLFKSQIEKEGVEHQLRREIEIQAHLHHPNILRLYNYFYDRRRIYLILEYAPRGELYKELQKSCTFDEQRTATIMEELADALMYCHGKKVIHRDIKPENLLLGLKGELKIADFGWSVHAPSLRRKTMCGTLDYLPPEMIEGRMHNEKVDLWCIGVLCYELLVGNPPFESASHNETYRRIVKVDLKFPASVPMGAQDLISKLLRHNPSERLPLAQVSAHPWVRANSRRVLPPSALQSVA

Structure (SMILES) | IC50 (AuroraA-TPX2) | IC50 (AuroraB)
CCc1cc(-c2ccc(C)s2)nnc1Nc1ccc(Oc2ccnc3cc(OC)cnc23)cc1 [compound 205, 4-ethyl-N-(4-((7-(methyloxy)-1,5-naphthyridin-4-yl)oxy)phenyl)-6-(5-methyl-2-thienyl)-3-pyridazinamine] | 0.06 µM | 0.004 µM
COc1cnc2c(Oc3ccc(Nc4nnc(-c5ccc(Cl)c(OCCS(C)(=O)=O)c5)c5ccccc45)cc3)ccnc2c1 [Example 394, 4-(4-Chloro-3-(2-(methylsulfonyl)ethoxy)phenyl)-N-(4-(7-methoxy-1,5-naphthyridin-4-yloxy)phenyl)phthalazin-1-amine] | 0.015 µM | 0.009 µM
COCCn1ccc2nccc(Sc3ccc(Nc4nnc(-c5ccc(Cl)cc5)c5ccccc45)cc3)c21 [compound 469, 4-(4-chlorophenyl)-N-(4-((1-(2-(methyloxy)ethyl)-1H-pyrrolo[3,2-b]pyridin-7-yl)thio)phenyl)-1-phthalazinamine] | 0.11 µM | 0.053 µM
Cn1cncc1-c1cc2nccc(Oc3ccc(Nc4nnc(-c5ccc(Cl)cc5)c5ccccc45)cc3)c2s1 [compound 249, 4-(4-chlorophenyl)-N-(4-((2-(1-methyl-1H-imidazol-5-yl)thieno[3,2-b]pyridin-7-yl)oxy)phenyl)-1-phthalazinamine] | 0.004 µM | 0.001 µM
CC(C)n1ccc2nccc(Sc3ccc(Nc4nnc(-c5ccc(Cl)cc5)c5ccccc45)cc3)c21 [compound 471, 4-(4-chlorophenyl)-N-(4-((1-(1-methylethyl)-1H-pyrrolo[3,2-b]pyridin-7-yl)thio)phenyl)-1-phthalazinamine] | 0.09 µM | 0.049 µM
CCc1cc(-c2ccccc2)nnc1Nc1ccc(Sc2ccnc3cc(OC)cnc23)cc1 [compound 274, 4-ethyl-N-(4-(7-methoxy-1,5-naphthyridin-4-ylthio)phenyl)-6-phenylpyridazin-3-amine] | 0.066 µM | 0.004 µM
COc1cnc2c(Oc3ccc(Nc4nnc(-c5ccc(Cl)c(Cl)c5)c5ccccc45)cc3)ccnc2c1 [compound 201, 4-(3,4-dichlorophenyl)-N-(4-((7-(methyloxy)-1,5-naphthyridin-4-yl)oxy)phenyl)-1-phthalazinamine] | 0.035 µM | 0.006 µM
COc1cnc2c(Oc3ccc(Nc4nnc(-c5ccccc5)c(C)c4C)cc3)ccnc2c1 [compound 281, 4,5-dimethyl-N-(4-((7-(methyloxy)-1,5-naphthyridin-4-yl)oxy)phenyl)-6-phenyl-3-pyridazinamine] | 0.696 µM | 0.019 µM
FC(F)(F)Oc1ccc2c(Sc3ccc(Nc4nnc(-c5ccccc5)c5ccccc45)cc3)ccnc2c1 [compound 497] | > 25 µM | 0.333 µM
COc1cnc2c(Sc3ccc(Nc4nnc(N5CCN(C)CC5)c5ccccc45)cc3)ccnc2c1 [compound 503] | 0.02 µM | 0.007 µM

Other lines, results leading:

IC50 (AuroraA-TPX2) | IC50 (AuroraB) | Structure (SMILES)
0.557 µM | 0.01 µM | c1ccc(-c2nnc(Nc3ccc(Sc4ccnc5cc[nH]c45)cc3)c3ccccc23)cc1 [compound 462, 4-phenyl-N-(4-(1H-pyrrolo[3,2-b]pyridin-7-ylthio)phenyl)-1-phthalazinamine]
0.036 µM | 0.042 µM | COc1cc2nccc(Sc3ccc(Nc4nnc(-c5ccccc5)c5ccccc45)cc3)c2cc1OC [compound 104, N-(4-((6,7-bis(methyloxy)-4-quinolinyl)thio)phenyl)-4-phenyl-1-phthalazinamine]
0.098 µM | 0.064 µM | COc1ccc2nccc(Sc3ccc(Nc4nnc(-c5cc(C)cs5)c5ccccc45)cc3)c2n1 [compound 549]
0.092 µM | 0.041 µM | COc1cnc2c(Oc3ccc(Nc4nnc(-c5cc(C)cs5)c5ccccc45)cc3OC)ccnc2c1 [compound 567]
0.041 µM | 0.051 µM | COCCn1ccc2nccc(Sc3ccc(Nc4nnc(-c5cc(C)cs5)c5ccccc45)cc3)c21 [compound 470, N-(4-((1-(2-(methyloxy)ethyl)-1H-pyrrolo[3,2-b]pyridin-7-yl)thio)phenyl)-4-(4-methyl-2-thienyl)-1-phthalazinamine]
